{
  "source": "patent US9809822B2",
  "about": "(priority 2013, dated 2017)",
  "key": {"[1]": {"conditions": "C14 hydroxyl replaced by electron withdrawing group; background statement; cited from earlier work"}, "[2]": {"system": "BxPC-3 pancreatic cancer cells", "experiment": "Inhibition of triptolide-AS1411 conjugate on the growth of pancreatic cancer cells in vitro (absorbance, MTT)", "format": "cell-based, human", "conditions": "for Absorbance (24 h) / Absorbance (48 h): replicate wells", "protocol": "5 pancreatic cancer cell lines (MiaPaCa-2, PANC-1, BxPC-3, SW1990 and ASPC-1) used in the experiments were all purchased from Shanghai Cell Bank.\nFetal bovine serum and two antibiotics were added into the above media so as to form a final culture medium with a final content of 10% and 1%. Cells were incubated in an incubator at 37° C. and with 5% CO2.\nPancreatic cancer cells (MiaPaCa-2, PANC-1, BxPC-3, SW1990 and ASPC-1) were uniformly seeded into a 96-well plate with a low density (1×10^3˜1×10^4, depending on the specific cell lines, and the conditions were referred to Shanghai Cell Bank). After placed in incubator for adhering overnight, the used medium was replaced by a serum free medium containing drug. […] The cells were then incubated in the incubator at 37° C. and with 5% CO2. Cell activities were measured by MTT. The operation was performed for 4 times."}, "[3]": {"system": "acute lymphoblastic leukemia T-cells (CCRF-CEM)", "experiment": "Inhibition of triptolide-SGC8C conjugate on the growth of cancer cells in vitro (absorbance, MTT)", "format": "cell-based", "conditions": "replicates, listed as TP", "protocol": "Cell lines: acute lymphoblastic leukemia T-cells (CCRF-CEM) and hepatocyte (L-02).\nFetal bovine serum and two antibiotics were added into the above media so as to form a final culture medium with a final content of 10% and 1%. Cells were incubated in an incubator at 37° C. and with 5% CO2. Growth conditions of the cells were constantly observed and cell counting was performed, and all the experiments were carried out on cells in logarithmic growth phase.\nStudy on anti-cancer activity: acute lymphoblastic leukemia T-cells (CCRF-CEM) and liver cells (L-02) were uniformly seeded into a 96-well plate in a low density (1×10^3˜1×10^4, depending on the specific cell lines) and were placed in an incubator overnight for adhering, the used medium was replaced by a serum free medium containing drug. […] The cells were then cultured in the incubator at 37° C. and with 5% CO2. Cell activities were measured by MTT. The operations were repeated for 3 times."}, "[4]": {"design": "species or system female nude mice", "conditions": "female, nude, mouse, in vivo", "excerpt": "BxPC-3 cells in logarithmic growth phase were used.\nSamples A and B in 2.2.2 were used."}, "cancer cells": {"system": "cancer cells", "conditions": "background statement; cited from earlier work"}, "[5]": {"conditions": "background statement; cited from earlier work"}},
  "note": "“And” between values parts separate entries of the source, which are not always exact repeats. Identical values can stand only once.",
  "data": [
    {"smiles": "CC(C)[C@]12O[C@H]1[C@@H]1O[C@]13[C@]1(O[C@H]1C[C@H]1C4=C(CC[C@@]13C)C(=O)OC4)[C@@H]2F", "note": "[Compound M-1]", "values": [
      {"measurement": "cytotoxicity compared with TP", "setting": "[1]", "result": "greater than TP"}
    ]},
    {"smiles": "CC(C)[C@]12O[C@H]1[C@@H]1O[C@]13[C@]1(O[C@H]1C[C@H]1C4=C(CC[C@@]13C)C(=O)OC4)[C@@H]2O", "note": "[Triptolide]", "values": [
      {"measurement": "Absorbance (24 h)", "setting": "[2]; 25 nM", "result": "0.745 and 0.764 and 0.718 and 0.690"},
      {"measurement": "Absorbance (48 h)", "setting": "[2]; 25 nM", "result": "0.296 and 0.322 (2×) and 0.317"},
      {"measurement": "Absorbance (24 h)", "setting": "[2]; 50 nM", "result": "0.436 and 0.430 and 0.454 and 0.424"},
      {"measurement": "Absorbance (48 h)", "setting": "[2]; 50 nM", "result": "0.219 and 0.223 and 0.231 and 0.220"},
      {"measurement": "Absorbance (24 h)", "setting": "[2]; 100 nM", "result": "0.393 and 0.397 and 0.403 and 0.364"},
      {"measurement": "Absorbance (48 h)", "setting": "[2]; 100 nM", "result": "0.211 and 0.206 and 0.223 and 0.212"},
      {"measurement": "Absorbance (24 h)", "setting": "[2]; 200 nM", "result": "0.365 and 0.366 and 0.402 and 0.399"},
      {"measurement": "Absorbance (48 h)", "setting": "[2]; 200 nM", "result": "0.200 and 0.218 and 0.222 and 0.213"},
      {"measurement": "effect on proliferation of pancreatic cancer cells", "setting": "[2]; compared with blank references, concentration range 50 nM-200 nM, time and dose dependent", "result": "significantly inhibit"},
      {"measurement": "Absorbance (CCRF-CEM)", "setting": "[3]; 25 nM", "result": "0.7555 and 0.7582 and 0.755"},
      {"measurement": "Absorbance (CCRF-CEM)", "setting": "[3]; 50 nM", "result": "0.5502 and 0.5441 and 0.5447"},
      {"measurement": "Absorbance (CCRF-CEM)", "setting": "[3]; 100 nM", "result": "0.2608 and 0.2717 and 0.2802"},
      {"measurement": "Absorbance (CCRF-CEM)", "setting": "[3]; 200 nM", "result": "0.1902 (2×) and 0.18"},
      {"measurement": "time after administration at which drug concentration in blood reaches a maximum", "setting": "[4]", "result": 0.5, "unit": "h"},
      {"measurement": "concentration that effectively inhibits the growth of the cancer cells", "setting": "cancer cells", "result": "2 to 10", "unit": "ng/mL"},
      {"measurement": "solubility in water", "setting": "[5]", "result": "not soluble in water"}
    ]},
    {"smiles": "CC(C)[C@]12O[C@H]1[C@@H]1O[C@]13[C@]1(O[C@H]1C[C@H]1C4=C(CC[C@@]13C)C(=O)OC4)[C@H]2F", "note": "[Compound M-2]", "values": [
      {"measurement": "cytotoxicity compared with TP", "setting": "[1]", "result": "greater than TP"}
    ]}
  ]
}
